Where two headings read alike, the source gives them in different places.
Key:
HepG2 cells = assay: MTT cell viability, HepG2; type: cell-based, human; conditions: Homo sapiens, Mean ± SD
Protocol: (§1) Cell lines used in the present disclosure include human liver carcinonoma cell line HepG2, human bladder carcinoma cell line BFTC905, human colon carcinoma cell lines HT29 and SW480, and human leukemia cell lines HL60 and Jurkat T, and mouse lymphocytic leukemia cell line L1210. Each cell lines were cultured and maintained in Dulbecco's modified Eagle media (DMEM) or RPMI 1640 medium supplemented with 10% heat inactivated fetal bovine serum (FBS), 1% penicillin/streptomycin, in 5% CO2195% air at 37° C.
(§2) The absorbance of the solution at 540 nm was measured by spectrophotometer. The IC50 values were defined as the drug concentration that inhibit 50% cell growth by setting the viability of untreated cells as 100%. Values were represented as the mean±SD from at least 3 independent experiments.
(§3) Effects of the compounds of formula (I) of this disclosure, specifically, NOC15 and NC 15, on HepG2 cells (liver carcinoma), BFTC905 (bladder carcinoma), HT29 (colon carcinoma), SW480 (colon carcinoma) and HL60 (leukemia) were assessed by cell viability analysis in accordance with procedures described above, in which compound 2, and other known anti-cancer agents including 5-FU, cisplatin and doxorubicin were respectively used as positive controls.
In this example, effects of NOC15 or NC15 on HepG2 cells were assessed by cell viability analysis in accordance with procedures described above, in which compound 2 was used as a positive control.

Jurkat T cells = assay: Cell cycle distribution by flow cytometry, Jurkat T cells; type: cell-based, human; conditions: for percentage of cells in subG1 phase: FIG. 5, FIG. 7
Protocol: Cultured cells with or without pre-treatment of the compounds of this invention (i.e., norcantharidin, NOC15, or NC15, 10-60 μM for 48 hours) were harvested from the cultured media and fixed by incuating with 75% iced cold ehtanol and kept at −20° C. until analysis. The fixed cells were then washed with PBS, and treated with […] (200 μg/mL, 500 μL) for about 1.5 hour at 37° C. Precipitated cells were collected by centrifugation and re-suspended in a buffer solution containing propidium iodine (PI) (40 μg/ml) and incubated in the dark for 20 min at 20-25° C. before being subject to flow cytometry analysis, where cell numbers at respective cell cycles were determined.
Cell cycle distribution was determined by flow cytometry as described in the “Materials and Methods” section. Results is depicted in FIG. 5.
In this example, Jurkat T cells were treated with or without NC15 (2.513 μM) for 24 or 48 hours before being subject to cell cycle analysis. Results are depicted in FIG. 7.

[1] = tested on: human leukemia cells (Jurkat T cells); assay: Cell viability (CCK-8), PMAI activated leukemia Jurkat T cells model; type: cell-based; conditions: 24 hours (NC15: 24 and 48 hours), FIG. 4, FIG. 6
Protocol: The cell viability assays were performed in 96-well plates. The 100 μl of cell suspensions (NHL or Jurkat T cells, 5×10^3 cells/well, serum-free medium) were inoculated in the wells and the plates were pre-incubated in the incubator for 24 hours (pre-incubated for 22 hours and stimulated with PMA 5 ng/ml plus ionomycin 250 ng/ml for 2 hours in PMAI-treated groups). Then, various concentrations of norcantharidin (0, 2, 4, 15, 30 and 60 μM) or NOC15 (0, 0.25, 0.5, 1, 2 and 4 μM) were added into the culture media in the wells. After 24 hours of incubation, the cell viability of NHL and Jurkat T cells was measured by cell counting kit-8 (CCK-8, Sigma). The half maximal inhibitory concentrations (IC50) of norcantharidin and NOC15 on Jurkat T cells and NHL cells were calculated.
In this example, a model of phorbol 12-myristate 13-acetate plus ionomycin (PMAI) activated leukemia Jurkat T cells model was employed to investigate the effects of the NOC15 on human leukemia cells (Jurkat T cells) and human lymphoblast cells (NHL).

BFTC905 = assay: MTT cell viability, BFTC905; type: cell-based, human; conditions: Homo sapiens, BFTC-905, 48 hours, Mean ± SD, read-out: Growth Inhibition IC50 BFTC905
Protocol: as §1, §2, §3

L1210 cells = assay: Syngeneic L1210 tumor in vivo therapy; set-up: species or system DBA/2 mice
Protocol: The DBA/2 mice (about 7 weeks old, 18-22 g) were obtained from BioLASCO Taiwan Co., Ltd. All mice were housed in specific pathogen-free condition with ad libitum access to water and laboratory chow. A solution of L1210 cells was injected into the subcutaneous tissue to establish a syngeneic tumor. Alternatively, the L1210 cells was injected peritoneally. All animal experiments were performed in accordance with the guidelines of the Animal Welfare Committee of Taipei Veterans General Hospital (Taiwan, R.O.C.).
To inoculate tumor, L1210 cells (1×10^6 cells per injection) were injected either subcutaneously or intraperitoneally to lab animals to generate tumors on day 1. After 7 days, NOC15 or NC15 (diluted in normal saline) was administered intra-peritoneally at a dose of 18 mg/kg every day for 7 days. The average body weight (BW) of the animals was measured daily.
After treatment, mice were sacrificed, and their tumors, livers and spleens were harvested and weighted, respectively; and white blood cells (WBC) counts were also measured.
Mice were inoculated with L1210 tumor cells in accordance with the procedures described in the section of “Materials and Methods.” For in vivo therapy, animals were given 18 mg/Kg NOC15 or NC15 by intra-peritoneal route, for a period of at least 7 days. Tumor size, animal body weight, respective weights of liver and spleen, as well as the white blood cell count of each animal were then measured respectively at the indicated time. Results are depicted in FIGS. 8 to 11, respectively.

## CC(C)=CCCC(C)=CCCC(C)=CCN1C(=O)C2C3CCC(O3)C2C1=O (centres unmarked) [Compound 18, N-farnesyl-7-oxabicyclo[2.2.1]heptane-2,3-dicarboximide]
HepG2 cells; HepG2, 24 h, read-out: Growth Inhibition On Hepatic Cancer Cells IC50 24 hrs
  IC50: 19.4 ± 2.1 µM
HepG2 cells; HepG2, 48 h, MTT, 48 hours, read-out: Growth Inhibition IC50 HepG2
  IC50: 16.4 ± 1.2 µM
HepG2 cells; HepG2, 48 h, read-out: Growth Inhibition On Hepatic Cancer Cells IC50 48 hrs
  IC50: 16.4 ± 1.2 µM
HepG2 cells; HepG2, 72 h, read-out: Growth Inhibition On Hepatic Cancer Cells IC50 72 hrs
  IC50: 12.8 ± 2.5 µM
Jurkat T cells; 2.513 μM, 48 hours, vs control, FIG. 7D
  number of cells in G0/G1 phase: decreased
Jurkat T cells; treated 24 hours (NC15 2.513 μM)
  percentage of cells in subG1 phase: started to increase
Jurkat T cells; treated 48 hours (NC15 2.513 μM)
  percentage of cells in subG1 phase: reached a significant level
[1]
  cytotoxicity to leukemia Jurkat T cells: toxic
BFTC905
  IC50: 9.3 ± 0.6 µM
L1210 cells; IP-inoculated tumor, 18 mg/kg i.p., FIG. 9B
  weight of liver: improved significantly
L1210 cells; IP-inoculated tumor, 18 mg/kg i.p., FIG. 9C
  weight of spleen: improved significantly
L1210 cells; SC-inoculated tumors, 18 mg/kg i.p. daily, FIG. 8A
  increase in life span: about 40%
L1210 cells; SC-inoculated, 18 mg/kg i.p., FIG. 9A
  weight of s.c. tumor: Significant reduction
L1210 cells; day 14, SC- or IP-injected L1210, 18 mg/kg i.p., FIG. 10
  white blood cell (WBC) counts: significant reductions
